The values below come from ChEMBL document CHEMBL1201862, “PubChem BioAssay data set” (2004).

Some test systems named below: ACHN; HCC 2998; HCT-116; KM-20L2; M14; Malme-3M; NCI-H23; NCI-H460; NCI-H522; OVCAR-3; SK-MEL-2; SK-MEL-5; SNB-75; SW-620; TK-10; U-251; SR; Hs-578T; MDA-MB-231; T47D.
What all share (assay): NCI tumour cell line growth inhibition, 48 h

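96-well plates; 48 h exposure; 5 concentrations. Endpoints by linear interpolation between flanking doses. Not reached: highest tested concentration assigned. GI50 = concentration required for 50% inhibition of growth.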 The source made the active and inactive calls. Rule as the data show it: active = GI50 up to about 1.1 µM and inactive = higher.

With `O=C(O)c1ccccc1NS(=O)(=O)c1ccc([N+](=O)[O-])cc1`, the GI50 in the assay with ACHN, in the assay with HCC 2998, in the assay with HCT-116, in the assay on KM-20L2, with M14 and in the assay on Malme-3M was > 100 µM (inactive) each time. Further, the GI50 with NCI-H23, in the assay with NCI-H460, with NCI-H522, in the assay with OVCAR-3, with SK-MEL-2 and in the assay with SK-MEL-5 was > 100 µM (inactive) each time. Moreover, the GI50 in the assay with SNB-75, with SW-620, in the assay with TK-10 and in the assay on U-251 was > 100 µM (inactive) throughout.
On to `CCOC(=O)N1C(=O)C2C3C=CC(C2C1=O)C1C2C(=O)N(C(=O)OCC)C(=O)C2C31` (stereo unspecified), for which the GI50 with ACHN was > 100 µM (inactive); with HCC 2998 it was > 100 µM (inactive); with HCT-116, > 39.5 µM (inactive); with KM-20L2 it was > 77.1 µM (inactive); in the assay with M14, > 100 µM (inactive); with Malme-3M, > 100 µM (inactive). Also, the GI50 with NCI-H23 was > 100 µM (inactive); with NCI-H460, > 42.7 µM (inactive); with NCI-H522, > 100 µM (inactive); with OVCAR-3 it was > 100 µM (inactive); in the assay with SK-MEL-2 it was > 100 µM (inactive); in the assay with SK-MEL-5, > 100 µM (inactive). Further, the GI50 with SNB-75 is > 92 µM (inactive); in the assay with SW-620, > 41 µM (inactive); in the assay with TK-10 it was > 100 µM (inactive); in the assay with U-251, > 68.1 µM (inactive).
`COc1cc(O)c2c(c1)C(=O)C=C(Cl)C2=O`: the GI50 was 94.6 µM (inactive) with ACHN; 83.6 µM (inactive) with HCC 2998; 66.4 µM (inactive) with HCT-116; > 100 µM (inactive) in the assay on KM-20L2; > 100 µM (inactive) in the assay on M14; > 100 µM (inactive) in the assay with Malme-3M. The GI50 in the assay with NCI-H23 is > 100 µM (inactive); in the assay with NCI-H522, > 100 µM (inactive); in the assay with OVCAR-3, > 100 µM (inactive); with SK-MEL-2, > 100 µM (inactive); in the assay on SK-MEL-5, 87.1 µM (inactive); in the assay on SNB-75 it was > 100 µM (inactive). Besides, the GI50 with SW-620, in the assay with TK-10 and in the assay on U-251 was > 100 µM (inactive) in each case.
For the compound `CN(C)CCNC(=O)c1cccc2c(Nc3ccc(S(=O)(=O)N=C(N)N)cc3)c3ccccc3nc12`, the GI50 in the assay on ACHN was 22.1 µM (inactive); in the assay with HCT-116 it was 25.8 µM (inactive); with KM-20L2 it was 32.9 µM (inactive); in the assay on M14 it was 30.8 µM (inactive); in the assay on NCI-H23 it was 29 µM (inactive); in the assay with NCI-H460, 3.17 µM (inactive). Besides, the GI50 was 3.97 µM (inactive) in the assay with NCI-H522; 19.2 µM (inactive) in the assay on SK-MEL-2; 13.9 µM (inactive) with SK-MEL-5; 15.1 µM (inactive) in the assay with SNB-75; 2.61 µM (inactive) with SR; 7.23 µM (inactive) in the assay on SW-620. Besides, the GI50 with TK-10 was 75.9 µM (inactive); with U-251, 8.36 µM (inactive).
`COc1cccc2c1[C@H]1OC(=O)NC1CCCCC2` (stereo partly specified): the GI50 in the assay on ACHN, in the assay with HCC 2998, in the assay on HCT-116, in the assay with KM-20L2, in the assay with M14 and in the assay on Malme-3M was > 100 µM (inactive) each time. Further, the GI50 in the assay on NCI-H23, with NCI-H460, with NCI-H522, in the assay with OVCAR-3, with SK-MEL-2 and in the assay on SK-MEL-5 was > 100 µM (inactive) each time. Further, the GI50 with SNB-75, in the assay with SW-620, in the assay on TK-10 and in the assay with U-251 was > 100 µM (inactive) each time.
As to `O=C1C=CC=CC2CC=C[C@@H](O)C12` (stereo partly specified), the GI50 with ACHN was 17.3 µM (inactive); with HCT-116, 13.2 µM (inactive); in the assay with KM-20L2 it was 21 µM (inactive); with M14, 18.7 µM (inactive); in the assay on Malme-3M it was 21.3 µM (inactive); in the assay on NCI-H23, > 10 µM (inactive). Moreover, the GI50 is 18.4 µM (inactive) in the assay with NCI-H460; 13.7 µM (inactive) with NCI-H522; > 10 µM (inactive) in the assay with OVCAR-3; 22.1 µM (inactive) with SK-MEL-2; 18 µM (inactive) in the assay on SK-MEL-5; 18.8 µM (inactive) in the assay with SR. The GI50 with SW-620 is 10.5 µM (inactive); in the assay on TK-10 it was 32.4 µM (inactive); in the assay with U-251, > 10 µM (inactive).
For the compound `CN(C(=O)C12C3C4C1C1C2C3C41C(O)C(C)(C)C)C(C)(C)C` (stereo unspecified), the GI50 in the assay with ACHN, in the assay with HCC 2998, in the assay with HCT-116, with KM-20L2, in the assay on M14 and in the assay with Malme-3M was > 100 µM (inactive) in each case. For the same compound, the GI50 in the assay with NCI-H23 was > 100 µM (inactive); in the assay with NCI-H460 it was > 100 µM (inactive); in the assay with NCI-H522 it was 58.2 µM (inactive); in the assay with OVCAR-3, > 100 µM (inactive); in the assay with SK-MEL-2, > 100 µM (inactive); in the assay on SK-MEL-5, > 100 µM (inactive). Moreover, the GI50 in the assay with SNB-75, in the assay with SW-620, with TK-10 and in the assay on U-251 was > 100 µM (inactive) in each case.
Consider `CC(=O)NNc1nc(C)c(C(=O)/C=C/c2ccc(Cl)cc2)s1`, for which the GI50 in the assay on ACHN, with HCC 2998, in the assay with KM-20L2, in the assay on Malme-3M, with NCI-H23 and in the assay with NCI-H460 was > 100 µM (inactive) in each case. The GI50 in the assay with NCI-H522, in the assay on OVCAR-3, with SK-MEL-2, with SK-MEL-5, with SNB-75 and in the assay with SW-620 was > 100 µM (inactive) throughout. Further, the GI50 in the assay on TK-10 and in the assay with U-251 was > 100 µM (inactive) in each case.
Consider `O=c1c2cc(Br)cc(Br)c2[nH]c(=S)n1-c1ccccc1`, for which the GI50 with ACHN is > 100 µM (inactive); in the assay with HCC 2998, 92.5 µM (inactive); in the assay with HCT-116, 48.8 µM (inactive); in the assay on KM-20L2 it was > 100 µM (inactive); with M14, > 100 µM (inactive); in the assay with Malme-3M, 82.4 µM (inactive). Moreover, the GI50 with NCI-H23 was 28.4 µM (inactive); in the assay with NCI-H460 it was > 100 µM (inactive); with OVCAR-3 it was 60.1 µM (inactive); in the assay with SK-MEL-2 it was > 100 µM (inactive); in the assay with SK-MEL-5, 54.8 µM (inactive); in the assay with SNB-75, 32.1 µM (inactive). For the same compound, the values for the GI50 with SW-620, in the assay with TK-10 and with U-251 were 71.4 µM (inactive), 78.3 µM (inactive) and 85.5 µM (inactive), respectively.
For `[O-][n+]1c2cc(CN3CCOCC3)c(CN3CCOCC3)cc2[n+]([O-])c2c(O)cccc21`, the GI50 in the assay with ACHN is 4.07 µM (inactive); in the assay with HCT-116, 1.81 µM (inactive); with KM-20L2 it was 5.93 µM (inactive); in the assay with M14, 3.64 µM (inactive); in the assay with Malme-3M, 8.73 µM (inactive); with NCI-H23 it was 2.37 µM (inactive). In addition, the GI50 was 0.993 µM (active) in the assay with NCI-H460; 1.88 µM (inactive) in the assay on NCI-H522; 5.15 µM (inactive) in the assay on OVCAR-3; 5.56 µM (inactive) in the assay on SK-MEL-2; 3.46 µM (inactive) with SNB-75; 0.193 µM (active) in the assay with SR. Further, the results for the GI50 with SW-620, with TK-10 and with U-251 were 2.94 µM (inactive), > 20.4 µM (inactive) and 3.25 µM (inactive), respectively.
For `CN(C)c1[se]nc2c1c(=O)n(C)c(=O)n2C`, the GI50 in the assay on ACHN, in the assay on HCC 2998, in the assay on HCT-116, with KM-20L2, in the assay on Malme-3M and in the assay on NCI-H23 was > 100 µM (inactive) in each case. For the same compound, the GI50 is > 100 µM (inactive) in the assay on NCI-H460; > 100 µM (inactive) in the assay on NCI-H522; > 100 µM (inactive) in the assay on OVCAR-3; > 100 µM (inactive) in the assay with SK-MEL-2; > 100 µM (inactive) in the assay on SK-MEL-5; 58.5 µM (inactive) in the assay with SNB-75. Also, the GI50 in the assay with SW-620, with TK-10 and in the assay on U-251 was > 100 µM (inactive) each time.
For `CCOC(=O)NC(=O)c1cn(CCCO)c(=O)[nH]c1=O`, the GI50 in the assay on ACHN, in the assay with HCC 2998, in the assay with HCT-116, in the assay on KM-20L2, in the assay with M14 and in the assay on Malme-3M was > 100 µM (inactive) each time. Also, the GI50 in the assay on NCI-H23 is > 100 µM (inactive); in the assay on NCI-H460, > 100 µM (inactive); with OVCAR-3, > 100 µM (inactive); with SK-MEL-2 it was > 100 µM (inactive); with SK-MEL-5 it was > 100 µM (inactive); in the assay on SNB-75, 45.6 µM (inactive). In addition, the GI50 with SW-620, in the assay with TK-10 and in the assay on U-251 was > 100 µM (inactive) each time.
As for `COc1cccc(C2c3cc4c(cc3OC(Nc3ccccc3)C2C)OCO4)c1OC` (stereo unspecified), the GI50 in the assay with ACHN is 3.94 µM (inactive); in the assay on HCC 2998, 74.1 µM (inactive); with HCT-116 it was 3.52 µM (inactive); in the assay on Hs-578T it was 3.08 µM (inactive); in the assay with M14, 67.6 µM (inactive); in the assay with MDA-MB-231, 13.7 µM (inactive). For the same compound, the GI50 in the assay with Malme-3M is 6.31 µM (inactive); in the assay with NCI-H23, 42 µM (inactive); in the assay with NCI-H460, 3.43 µM (inactive); in the assay with NCI-H522 it was 3.36 µM (inactive); in the assay with OVCAR-3, 5.36 µM (inactive); in the assay on SK-MEL-2, 4.55 µM (inactive). The GI50 in the assay on SK-MEL-5 is 6.5 µM (inactive); with SNB-75, 20.5 µM (inactive); in the assay on SR it was 0.809 µM (active); in the assay on SW-620, 7.85 µM (inactive); in the assay with T47D, 5.14 µM (inactive); in the assay with TK-10 it was 6.46 µM (inactive). Besides, in the assay with U-251, the GI50 is 5.94 µM (inactive).
